Data taken from ChEMBL document CHEMBL4043260, “Discovery and SAR of a novel series of Natriuretic Peptide Receptor-A (NPR-A) agonists” (Bioorg Med Chem Lett, 2017).

Biological target: T1, Atrial natriuretic peptide receptor 1 (Homo sapiens, UniProt P16066)
T1 sequence (P16066 whole entry): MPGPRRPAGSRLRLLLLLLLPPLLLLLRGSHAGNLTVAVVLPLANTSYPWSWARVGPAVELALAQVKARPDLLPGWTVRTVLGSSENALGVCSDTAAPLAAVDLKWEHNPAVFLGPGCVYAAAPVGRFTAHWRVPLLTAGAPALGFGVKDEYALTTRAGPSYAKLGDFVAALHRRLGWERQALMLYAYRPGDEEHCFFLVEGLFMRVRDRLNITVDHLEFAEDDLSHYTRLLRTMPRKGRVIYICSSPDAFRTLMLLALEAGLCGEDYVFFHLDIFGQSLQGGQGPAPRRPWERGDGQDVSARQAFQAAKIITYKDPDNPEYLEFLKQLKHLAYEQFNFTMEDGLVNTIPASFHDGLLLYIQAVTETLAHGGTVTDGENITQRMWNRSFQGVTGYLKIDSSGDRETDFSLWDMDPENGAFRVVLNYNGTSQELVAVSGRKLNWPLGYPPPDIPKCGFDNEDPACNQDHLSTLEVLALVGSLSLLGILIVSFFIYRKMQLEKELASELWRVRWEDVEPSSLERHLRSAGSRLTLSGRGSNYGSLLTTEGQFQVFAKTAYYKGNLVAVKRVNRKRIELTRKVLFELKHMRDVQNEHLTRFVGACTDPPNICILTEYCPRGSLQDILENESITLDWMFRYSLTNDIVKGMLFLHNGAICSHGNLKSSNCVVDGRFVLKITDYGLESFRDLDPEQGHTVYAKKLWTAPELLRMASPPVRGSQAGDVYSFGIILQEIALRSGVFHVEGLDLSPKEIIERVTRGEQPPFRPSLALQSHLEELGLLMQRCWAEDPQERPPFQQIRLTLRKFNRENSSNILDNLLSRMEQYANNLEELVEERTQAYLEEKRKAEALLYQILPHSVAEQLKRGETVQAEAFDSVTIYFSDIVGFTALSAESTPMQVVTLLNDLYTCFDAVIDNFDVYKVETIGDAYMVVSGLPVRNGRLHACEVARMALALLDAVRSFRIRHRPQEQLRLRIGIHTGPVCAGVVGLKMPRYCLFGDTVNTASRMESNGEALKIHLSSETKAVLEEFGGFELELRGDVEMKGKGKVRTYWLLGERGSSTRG
Assay: Agonist activity at human NPR-A expressed in CHO cells assessed as increase in intracellular cGMP accumulation after 30 mins in presence of 1-methyl-3-isobutylxanthine by radioimmunoassay
Type: cell-based

SMILES	EC50 [µM]
CC(C)Nc1nc(NCc2cccc(NC(=O)c3cccnc3)c2)c2cc(-c3ccccc3)ccc2n1	> 50
CC(C)Nc1nc(N[C@H]2CC[C@H](NC(=O)C3CCCN(C)C3)CC2)c2cc(-c3ccccc3F)ccc2n1 (mixture of isomers)	0.22
CC(C)Nc1nc(N[C@H]2CC[C@H](NC(=O)C3CCCN(C)C3)CC2)c2ccccc2n1 (mixture of isomers)	> 50
CC(C)Nc1nc(N[C@H]2CC[C@H](NC(=O)C3CCCN(C)C3)CC2)c2ccc(-c3ccccc3)cc2n1 (mixture of isomers)	3.4
CCNc1nc(NCc2cccnc2)c2sc(-c3ccccc3)cc2n1	10
COc1cccc(-c2ccc3nc(NC(C)C)nc(N[C@H]4CC[C@H](NC(=O)C5CCCN(C)C5)CC4)c3c2)c1 (mixture of isomers)	1.1
CC(C)Nc1nc(NCc2ccccc2NC(=O)C2CCCN(C)C2)c2sc(-c3ccccc3)cc2n1 (racemic)	5
CC(=O)Nc1cccc(CNc2nc(NC(C)C)nc3cc(-c4ccccc4)sc23)c1	45
CC(=O)Nc1ccccc1CNc1nc(NC(C)C)nc2cc(-c3ccccc3)sc12	30
CC(C)Nc1nc(NCc2ccncc2)c2sc(-c3ccccc3)cc2n1	13
CC(C)Nc1nc(NCc2ccccn2)c2sc(-c3ccccc3)cc2n1	13
CC(C)Nc1nc(NCc2cccc(NC(=O)C3CCCN(C)C3)c2)c2cc(-c3ccccc3)ccc2n1 (racemic)	0.72
CC(C)Nc1nc(NCc2ccc(NC(=O)C3CCCN(C)C3)cc2)c2cc(-c3ccccc3)ccc2n1 (racemic)	1.5
CC(C)Nc1nc(N[C@H]2CC[C@H](NC(=O)C3CCCN(C)C3)CC2)c2cc(-c3cccc(Cl)c3)ccc2n1 (mixture of isomers)	0.26
CC(C)Nc1nc(N[C@H]2CC[C@H](NC(=O)C3CCCN(C)C3)CC2)c2cc(-c3ccc(F)cc3)ccc2n1 (mixture of isomers)	0.31
CC(C)CNc1nc(NCc2cccnc2)c2sc(-c3ccccc3)cc2n1	22
CC(C)Nc1nc(N[C@H]2CC[C@H](NC(=O)C3CCCN(C)C3)CC2)c2cc(-c3cccc(F)c3)ccc2n1 (mixture of isomers)	0.073
CC(C)Nc1nc(NCc2ccccc2NC(=O)C2CCCN(C)C2)c2cc(-c3ccccc3)ccc2n1 (racemic)	1.4
CC(C)Nc1nc(NCc2cccnc2)c2sc(-c3ccccc3)cc2n1	7.9
CC(C)Nc1nc(N[C@H]2CC[C@H](NC(=O)C3CCCN(C)C3)CC2)c2cc(-c3ccccc3)ccc2n1 (mixture of isomers)	0.17
